In patent US8062607B2, “Lens care methods and kits” (Novartis AG, priority 2006, dated 2011):

How the values were obtained:
[1] = Micro testing of dye in Aquify MPS as a stand alone solution; type: cell-based; settings: dissolved in Aquify MPS
Excerpt: FD&C Blue No 1, Sanolin Blue, and Remazol Blue dissolved in Aquify® MPS (CIBA Vision) are submitted for micro testing as a stand alone solution.

[2] = Colorant stability in lens care solution (visible spectrum); type: physicochemical; settings: in Aquify MPS
Method: The colorant stability has also been tested for FD&C Blue No 1 in Aquify® MPS stored at 25° and 45° C. for 94 days. […] This gives us a shelf-life estimation based on colorant stability alone of approximately a year for FD&C Blue No 1 in Aquify® MPS. The colorant stability has also been tested for Vitosyn Blue in a lens care solution described above stored at 25° and 45° C. for 52 days. […] This gives a shelf life estimation based on colorant stability alone for approximately 7 months for Vitosyn Blue in the lens care solution.

With `CCN(Cc1cccc(S(=O)(=O)[O-])c1)c1ccc(C(=C2C=CC(=[N+](CC)Cc3cccc(S(=O)(=O)[O-])c3)C=C2)c2ccccc2S(=O)(=O)[O-])cc1.[Na+].[Na+]` [FD&C Blue No 1] the “micro testing as a stand alone solution” value [1] was “passes all micro testing”, the “shelf-life estimation based on colorant stability alone” value [2] was “approximately a year” and the “change of visible spectrum from time 0” value ([2]; 25° and 45° C., 94 days) was “has not changed significantly”.
